Experimental findings from patent US9499550B2 (BRISTOL-MYERS SQUIBB COMPANY, priority 2012, dated 2016) are described below.

Assay [1] has as its system HCV genotype 1a (H77 strain) replicon in HUH-7 cells. As to the kind of experiment: HCV replicon luciferase reporter assay, genotype 1a. Format: cell-based. As to conditions: Hepatitis C virus, Huh-7, 72 h, HCV genotype 1a replicon luciferase, 3 days incubation. A digest of the protocol:
(§1)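 Replicon inhibition for both genotypes was measured as Renilla luciferase signal (EnduRen, 7.5 μM final, 2 h) after 3-day, 37° C exposure of replicon-bearing HUH-7 cells in 4% FCS DMEM, 0.5% DMSO. The 1b construct carries S1179I; the 1a H77 construct carries P1496L and S2204I. Twenty-point, 3-fold dilutions were fitted four-parametrically for EC50, and CC50 was taken from multiplexed Cell Titer-Blue.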
On the technique in general: In antiviral work, replicon cells carry a viral genome segment that copies itself.

Assay [2] deals with HCV genotype 1b (Con1) replicon in HUH-7 cells. Nature of the assay: HCV replicon luciferase reporter assay, genotype 1b. The class given is cell-based. As to conditions: Hepatitis C virus, Huh-7, 72 h, HCV genotype 1b replicon luciferase, 3 days incubation. A digest of the protocol: as §1

SMILES strings stand for the structures. Where two headings read alike, the source gives them in different places.

As usually defined, the EC50 is the midpoint of the concentration-response curve. `CCOc1nnc(O[C@@H]2C[C@H]3C(=O)N[C@]4(C(=O)NS(=O)(=O)C5CC5)C[C@H]4/C=C\CC[C@H](C)C[C@@H](CC)[C@H](NC(=O)OC(C)(C)C(F)(F)F)C(=O)N3C2)c2ccccc12` [Compound 5044, 1,1,1-trifluoro-2-methylpropan-2-yl((2R,6S,7R,9S,13aS,14aR,16aS,Z)-14a-((cyclopropylsulfonyl)carbamoyl)-2-((4-ethoxyphthalazin-1-yl)oxy)-7-ethyl-9-methyl-5,16-dioxo-1,2,3,5,6,7,8,9,10,11,13a,14,14a,15,16,16a-hexadecahydrocyclopropa[e]pyrrolo[1,2-a][1,4]diazacyclopentadecin-6-yl)carbamate]: the EC50 was in the range of 4.82 to 103 nM in assay [1] (read-out: LE_1a (EC50, range)) and 4.82 to 103 nM in assay [2] (read-out: LE_1b (EC50, range)).

As to `CCOc1nnc(O[C@@H]2C[C@H]3C(=O)N[C@]4(C(=O)NS(=O)(=O)C5CC5)C[C@H]4/C=C\CC[C@@H](C)C[C@@H](CC)[C@H](NC(=O)OC(C)(C)C(F)(F)F)C(=O)N3C2)c2ccccc12` [Compound 5045, 1,1,1-trifluoro-2-methylpropan-2-yl((2R,6S,7R,9R,13aS,14aR,16aS,Z)-14a-((cyclopropylsulfonyl)carbamoyl)-2-((4-ethoxyphthalazin-1-yl)oxy)-7-ethyl-9-methyl-5,16-dioxo-1,2,3,5,6,7,8,9,10,11,13a,14,14a,15,16,16a-hexadecahydrocyclopropa[e]pyrrolo[1,2-a][1,4]diazacyclopentadecin-6-yl)carbamate], the EC50 in assay [1] (read-out: LE_1a (EC50, range)) was less than 5.46 nM; in assay [2] (read-out: LE_1b (EC50, range)) it was less than 5.46 nM.

For the compound `CCOc1nnc(O[C@@H]2C[C@H]3C(=O)N[C@]4(C(=O)NS(=O)(=O)C5(C)CC5)C[C@H]4/C=C\CC[C@H](C)C[C@@H](CC)[C@H](NC(=O)OC(C)(C)C)C(=O)N3C2)c2ccccc12` [Compound 5046, tert-butyl ((2R,6S,7R,9S,13aS,14aR,16aS,Z)-2-((4-ethoxyphthalazin-1-yl)oxy)-7-ethyl-9-methyl-14a-(((1-methylcyclopropyl)sulfonyl)carbamoyl)-5,16-dioxo-1,2,3,5,6,7,8,9,10,11,13a,14,14a,15,16,16a-hexadecahydrocyclopropa[e]pyrrolo[1,2-a][1,4]diazacyclopentadecin-6-yl)carbamate], the EC50 in assay [1] (read-out: LE_1a (EC50, range)) is 4.82 to 103 nM; in assay [2] (read-out: LE_1b (EC50, range)), less than 5.46 nM.

Regarding `CCOc1nnc(O[C@@H]2C[C@H]3C(=O)N[C@]4(C(=O)NS(=O)(=O)C5(C)CC5)C[C@H]4/C=C\CC[C@@H](C)C[C@@H](CC)[C@H](NC(=O)OC(C)(C)C)C(=O)N3C2)c2ccccc12` [Compound 5047, tert-butyl ((2R,6S,7R,9R,13aS,14aR,16aS,Z)-2-((4-ethoxyphthalazin-1-yl)oxy)-7-ethyl-9-methyl-14a-(((1-methylcyclopropyl)sulfonyl)carbamoyl)-5,16-dioxo-1,2,3,5,6,7,8,9,10,11,13a,14,14a,15,16,16a-hexadecahydrocyclopropa[e]pyrrolo[1,2-a][1,4]diazacyclopentadecin-6-yl)carbamate], the EC50 in assay [1] (read-out: LE_1a (EC50, range)) was less than 5.46 nM; in assay [2] (read-out: LE_1b (EC50, range)), less than 5.46 nM.

In the case of `CCOc1nnc(O[C@@H]2C[C@H]3C(=O)N[C@]4(C(=O)NS(=O)(=O)C5(C)CC5)C[C@H]4/C=C\CC[C@H](C)C[C@@H](CC)[C@H](NC(=O)OC(C)(C)C(F)(F)F)C(=O)N3C2)c2ccccc12` [Compound 5048, 1,1,1-trifluoro-2-methylpropan-2-yl((2R,6S,7R,9S,13aS,14aR,16aS,Z)-2-((4-ethoxyphthalazin-1-yl)oxy)-7-ethyl-9-methyl-14a-(((1-methylcyclopropyl)sulfonyl)carbamoyl)-5,16-dioxo-1,2,3,5,6,7,8,9,10,11,13a,14,14a,15,16,16a-hexadecahydrocyclopropa[e]pyrrolo[1,2-a][1,4]diazacyclopentadecin-6-yl)carbamate], the EC50 in assay [1] (read-out: LE_1a (EC50, range)) is 4.82 to 103 nM; in assay [2] (read-out: LE_1b (EC50, range)), 4.82 to 103 nM.

Consider `CCOc1nnc(O[C@@H]2C[C@H]3C(=O)N[C@]4(C(=O)NS(=O)(=O)C5(C)CC5)C[C@H]4/C=C\CC[C@@H](C)C[C@@H](CC)[C@H](NC(=O)OC(C)(C)C(F)(F)F)C(=O)N3C2)c2ccccc12` [Compound 5049, 1,1,1-trifluoro-2-methylpropan-2-yl((2R,6S,7R,9R,13aS,14aR,16aS,Z)-2-((4-ethoxyphthalazin-1-yl)oxy)-7-ethyl-9-methyl-14a-(((1-methylcyclopropyl)sulfonyl)carbamoyl)-5,16-dioxo-1,2,3,5,6,7,8,9,10,11,13a,14,14a,15,16,16a-hexadecahydrocyclopropa[e]pyrrolo[1,2-a][1,4]diazacyclopentadecin-6-yl)carbamate], for which the EC50 was less than 5.46 nM in assay [1] (read-out: LE_1a (EC50, range)) and less than 5.46 nM in assay [2] (read-out: LE_1b (EC50, range)).

As for `CCOc1nnc(O[C@@H]2C[C@H]3C(=O)N[C@]4(C(=O)NS(=O)(=O)C5(C)CC5)C[C@H]4/C=C\CC[C@H](C)C[C@@H](CC)[C@H](NC(=O)OC(C)(C)C(C)(F)F)C(=O)N3C2)c2ccccc12` [Compound 5050, 3,3-difluoro-2-methylbutan-2-yl((2R,6S,7R,9S,13aS,14aR,16aS,Z)-2-((4-ethoxyphthalazin-1-yl)oxy)-7-ethyl-9-methyl-14a-(((1-methylcyclopropyl)sulfonyl)carbamoyl)-5,16-dioxo-1,2,3,5,6,7,8,9,10,11,13a,14,14a,15,16,16a-hexadecahydrocyclopropa[e]pyrrolo[1,2-a][1,4]diazacyclopentadecin-6-yl)carbamate], the EC50 in assay [1] (read-out: LE_1a (EC50, range)) was 4.82 to 103 nM; in assay [2] (read-out: LE_1b (EC50, range)), 4.82 to 103 nM.

Take `CCOc1nnc(O[C@@H]2C[C@H]3C(=O)N[C@]4(C(=O)NS(=O)(=O)C5(C)CC5)C[C@H]4/C=C\CC[C@@H](C)C[C@@H](CC)[C@H](NC(=O)OC(C)(C)C(C)(F)F)C(=O)N3C2)c2ccccc12` [Compound 5051, 3,3-difluoro-2-methylbutan-2-yl((2R,6S,7R,9R,13aS,14aR,16aS,Z)-2-((4-ethoxyphthalazin-1-yl)oxy)-7-ethyl-9-methyl-14a-(((1-methylcyclopropyl)sulfonyl)carbamoyl)-5,16-dioxo-1,2,3,5,6,7,8,9,10,11,13a,14,14a,15,16,16a-hexadecahydrocyclopropa[e]pyrrolo[1,2-a][1,4]diazacyclopentadecin-6-yl)carbamate]: the EC50 in assay [1] (read-out: LE_1a (EC50, range)) is less than 5.46 nM; in assay [2] (read-out: LE_1b (EC50, range)), less than 5.46 nM.

For `CCn1nc(O[C@@H]2C[C@H]3C(=O)N[C@]4(C(=O)NS(=O)(=O)C5(C)CC5)C[C@H]4/C=C\CC[C@H](C)C[C@@H](C)[C@H](NC(=O)OC(C)(C)C(F)(F)F)C(=O)N3C2)c2ccccc2c1=O` [Compound 5052, 1,1,1-trifluoro-2-methylpropan-2-yl((2R,6S,7R,9S,13aS,14aR,16aS,Z)-2-((3-ethyl-4-oxo-3,4-dihydrophthalazin-1-yl)oxy)-7,9-dimethyl-14a-(((1-methylcyclopropyl)sulfonyl)carbamoyl)-5,16-dioxo-1,2,3,5,6,7,8,9,10,11,13a,14,14a,15,16,16a-hexadecahydrocyclopropa[e]pyrrolo[1,2-a][1,4]diazacyclopentadecin-6-yl)carbamate], the EC50 in assay [1] (read-out: LE_1a (EC50)) was 330 nM; in assay [1] (read-out: LE_1a (EC50, range)), more than 87.4 nM; in assay [2] (read-out: LE_1b (EC50)) it was 76.2 nM; in assay [2] (read-out: LE_1b (EC50, range)), 4.82 to 103 nM.

In the case of `CCn1nc(O[C@@H]2C[C@H]3C(=O)N[C@]4(C(=O)NS(=O)(=O)C5(C)CC5)C[C@H]4/C=C\CC[C@@H](C)C[C@@H](C)[C@H](NC(=O)OC(C)(C)C(F)(F)F)C(=O)N3C2)c2ccccc2c1=O` [Compound 5053, 1,1,1-trifluoro-2-methylpropan-2-yl((2R,6S,7R,9R,13aS,14aR,16aS,Z)-2-((3-ethyl-4-oxo-3,4-dihydrophthalazin-1-yl)oxy)-7,9-dimethyl-14a-(((1-methylcyclopropyl)sulfonyl)carbamoyl)-5,16-dioxo-1,2,3,5,6,7,8,9,10,11,13a,14,14a,15,16,16a-hexadecahydrocyclopropa[e]pyrrolo[1,2-a][1,4]diazacyclopentadecin-6-yl)carbamate], the EC50 in assay [1] (read-out: LE_1a (EC50, range)) is 4.82 to 103 nM; in assay [2] (read-out: LE_1b (EC50, range)), less than 5.46 nM.

For `[2H]C([2H])([2H])C(OC(=O)N[C@@H]1C(=O)N2C[C@H](Oc3nn(CC)c(=O)c4ccccc34)C[C@H]2C(=O)N[C@]2(C(=O)NS(=O)(=O)C3(C)CC3)C[C@H]2/C=C\CC[C@H](C)C[C@H]1C)(C([2H])([2H])[2H])C(F)(F)F` [Compound 5054], the EC50 in assay [1] (read-out: LE_1a (EC50, range)) was more than 87.4 nM; in assay [2] (read-out: LE_1b (EC50, range)) it was more than 87.4 nM.

Consider `[2H]C([2H])([2H])C(OC(=O)N[C@@H]1C(=O)N2C[C@H](Oc3nn(CC)c(=O)c4ccccc34)C[C@H]2C(=O)N[C@]2(C(=O)NS(=O)(=O)C3(C)CC3)C[C@H]2/C=C\CC[C@@H](C)C[C@H]1C)(C([2H])([2H])[2H])C(F)(F)F` [Compound 5055], for which the EC50 in assay [1] (read-out: LE_1a (EC50, range)) is 4.82 to 103 nM; in assay [2] (read-out: LE_1b (EC50, range)), less than 5.46 nM.

`CCn1nc(O[C@@H]2C[C@H]3C(=O)N[C@]4(C(=O)NS(=O)(=O)C5(C)CC5)C[C@H]4/C=C\CC[C@H](C)C[C@@H](C)[C@H](NC(=O)O[C@@H]4C[C@@H]5C[C@@H]5C4)C(=O)N3C2)c2ccccc2c1=O` [Compound 5056, (1R,3r,5S)-bicyclo[3.1.0]hexan-3-yl((2R,6S,7R,9S,13aS,14aR,16aS,Z)-2-((3-ethyl-4-oxo-3,4-dihydrophthalazin-1-yl)oxy)-7,9-dimethyl-14a-(((1-methylcyclopropyl)sulfonyl)carbamoyl)-5,16-dioxo-1,2,3,5,6,7,8,9,10,11,13a,14,14a,15,16,16a-hexadecahydrocyclopropa[e]pyrrolo[1,2-a][1,4]diazacyclopentadecin-6-yl)carbamate]: the EC50 in assay [1] (read-out: LE_1a (EC50)) is 256 nM; in assay [1] (read-out: LE_1a (EC50, range)) it was more than 87.4 nM; in assay [2] (read-out: LE_1b (EC50)) it was 61 nM; in assay [2] (read-out: LE_1b (EC50, range)), 4.82 to 103 nM.
